# Experimental data reported in patent US20050038022A1, “Method for treatment of cancer and compositions for use therein” (Unisearch Limited, priority 2001, published 2005).
# Experiments:
# [1] = at all times after a 400 mg oral dose; cited from earlier work
# [2] = tested on: liver (HepG2, Hep3B, PLC/PRF/5, SKHEP-1, Hep1-6, HTC, Novikoff) and colorectal cancer (C-170, HT-29 and LOVO) cell lines; experiment: [3H]thymidine incorporation, liver and colorectal cancer cell lines (summary); type: cell-based, human and animal; conditions: liver or colorectal cancer cells
# Text: The present inventors tested BZs and particularly albendazole against a range of liver (HepG2, Hep3B, PLC/PRF/5, SKHEP-1, Hep1-6, HTC, Novikoff) and colorectal cancer (C-170, HT-29 and LOVO) cell lines.
# [3] = tested on: liver, colorectal, prostate and leukeamic cell lines; experiment: Albendazole/ABS side by side in various cell lines (general); type: cell-based; conditions: 5 days
# Method: (§1) In order to be able to test ABS, a proper solvent had to be found. […] Therefore to allow direct comparison between the 2 compounds, all subsequent experiments were run using 0.5% DMSO for both ABS and albendazole. In the cell lines examined, albendazole produced very similar results to what we had previously reported for the drug in liver cancer cells.
# (§2) Both albendazole and ABS were tested side by side against various cell lines as follows: • Liver—HepGZ Hep3B, SKHEP-1 • Colorectal—170, LOVO, HT-29 • Prostate—PC3, LNCap, Du145 • Leukeamic—HL60
# The fist 9 cell lines were used to compare effectiveness and potency while, the last one was used to assess toxicity on bone marrow (as a rough guide).
# (§3) Cells were treated with various concentrations of each compound for a period of 5 days.
# [4] = tested on: Hep1-6; experiment: [3H]thymidine incorporation assay, Hep1-6; type: cell-based, mice; conditions: 5 days
# Method: (§4) HepG2, Hep3-B, Hep1-6, SKHEP-1, PLC/PRF/5, and HTC cells were obtained from European Collection of Cell Cultures (ECACC; U.K), Novikoff was obtained from Cancer Research Centre (DKFZ) Heidelberg, Germany. Cells were cultured in MEM or DMEM supplemented with 10% FBS, 50 units/ml penicillin, 50 units/ml streptomycin, 25 μg/ml amphotericin B (Gibco, Grand Island, N.Y.) and maintained subconfluent at 37° C. in humidified incubators containing 5% CO2. Albendazole (Sigma, Australian subsidiary) was dissolved in absolute ethanol at concentrations that were 1000-fold higher than the final medium concentration.
# [5] = tested on: HepG2; experiment: [3H]thymidine incorporation assay, HepG2; type: cell-based, human; conditions: 5 days
# Method: as §4
# [6] = tested on: PC3, LNCap and Du 145; experiment: Albendazole/ABS proliferation test, prostate cancer cells; type: cell-based, human; conditions: 3 human prostate cell lines
# Method: as §1, §2, §3
# [7] = tested on: liver tumors (CRC or HCC); experiment: Albendazole in patients with advanced malignancy (phase 1 trial); type: in vivo, human
# Method: The study was single-centre, open and non-controlled. Nine patients (8 male and 1 female) with either advanced CRC and hepatic metastasis or HCC were included in this study. One patient with neuroendocrine cancer and mesothelioma was also treated on a compassionate basis. The patients aged between 38-79 years were inoperable and had failed existing chemotherapy and also, except for two, had measurable and increasing tumor markers. The majority had also already failed hepatic artery chemotherapy. The diagnosis of CRC or HCC was made by ultrasound, CT or MRI scan, confirmed by histology and by determination of CEA or AFP levels for CRC or HCC respectively. Only patients with expected survival of more than one month were enrolled into the study. The study was approved by the Human Ethics Committee for Research of SESAHS. The protocol and the aim of the study was clearly explained to each patient and informed consent obtained. The duration of this study was four weeks but was to be stopped if leukopenia (WBC<[…]) or severe hepatocellular injury (ALT or AST 2× upper limit) developed. All patients received albendazole (400 mg scored tablets, Smith Kline Beecham, Australian subsidiary) 10 mg/kg orally in two or three divided doses for a planned duration of four weeks. This is the clinical dose of albendazole employed in the treatment of parasitic diseases. Patients were evaluated every three days by clinical examination together with full blood tests to monitor tumor markers, hematopoesis, liver and kidney function toxicity. A partial response (PR) was defined as a 50% or more decrease in the value of the markers. In addition there must be no new lesions or progression of any other lesions. Stable disease was defined as a decrease of less than 50%, or an increase of less than 25% in the value of tumor markers, while progressive disease (PD) was a 25% or more increase in the value of the tumor markers or the appearance of any new lesions.
# [8] = tested on: SKHEP-1; experiment: Combination with methimazole (MT), SKHEP-1 growth; type: cell-based; conditions: SKHEP-1, albendazole 0.25 μM, 5 days
# Method: The effect of inhibition of metabolism of albendazole on its antiproliferative activity was investigated using […] and the methimazole as an inhibitor of albendazole
# 5000 cells each of HepG2 and S EP1 were plated into 24 wells plates and treated for 5 days with various concentrations of albendazole alone or together with MT.
# [9] = tested on: SKHEP-1 cells; experiment: Cell cycle analysis by flow cytometry; type: cell-based, human; conditions: 3 days (FIG. 3)
# Method: SKHEP-1 cells (5×10^4) were plated onto six-well tissue culture plates. Triplicate samples were treated with the indicated concentrations of albendazole (100, 250 and 1000 nM). The medium was changed everyday. After 72 h the relevant group of cells were collected, washed twice with phosphate buffer and treated with ribonuclease, Triton X-100 and propidium iodide (Sigma) based on the method described by Taylor [12]. The percentage of cells within the G1, S, and G2-M phases of the cell cycle were determined using a FACScan flow cytometer (Becton Dickinson FACSort) and Multifit LT cell cycle analysis software (Verity Software INC.)
smiles,measurement,setting,value
"CCCSc1ccc2nc(NC(=O)OC)[nH]c2c1 [albendazole, methyl 5-propylthio-1H-benzimidazole-2-yl carbamate]",concentration of the unchanged drug,[1],below the detection limits
same,concentration at which inhibitory activity starts,[2],around 0.1 micromoles/L
same,antiproliferative activity at 0.25 micromoles/L,[3]; 0.25 micromoles/L,dramatically increasing
same,inhibition at 1 µM,"[3]; 120 h, 1 micromoles/L",~100%
same,concentration at which antiproliferative activity becomes evident,"[3]; 0.5% DMSO, in general",0.01 µmol/L
same,[3H]thymidine incorporation,"[4]; Hep1-6, albendazole 10 nM",97.7 ± 4.3 % control
same,[3H]thymidine incorporation,"[4]; Hep1-6, albendazole 100 nM",79.5 ± 3.2 % control
same,[3H]thymidine incorporation,"[4]; Hep1-6, albendazole 500 nM",28.1 ± 2.5 % control
same,[3H]thymidine incorporation,"[4]; Hep1-6, albendazole 1000 nM",5.6 ± 0.6 % control
same,[3H]thymidine incorporation,"[5]; HepG2, albendazole 10 nM",93.1 ± 5.6 % control
same,[3H]thymidine incorporation,"[5]; HepG2, albendazole 100 nM",72.9 ± 6.3 % control
same,[3H]thymidine incorporation,"[5]; HepG2, albendazole 500 nM",12.2 ± 2.9 % control
same,sensitivity of prostate cell lines in culture,[6],quite sensitive
same,disease outcome by tumor markers,"[7]; 10 mg/kg/day oral, planned 28 days, nine patients (FIG. 6)","stabilization of the disease in three, and progression of the disease in the other two patients"
same,liver and kidney function tests,"[7]; during the course of the trial, 10 mg/kg/day oral",no significant changes
same,Comments (adverse event),"[7]; patient 1, HCC, 19 days treatment",neutropenia;
same,Comments (adverse event),"[7]; patient 2, CRC, 14 days treatment",neutropenia;
same,Comments (adverse event),"[7]; patient 8, CRC",neutropenia
same,serum CEA levels,"[7]; patient 9, for the duration of the treatment (4 weeks)",less than 10 μg/L
same,disease outcome,"[7]; patient number 1 (HCC), treatment stopped on day 19",stabilization of the disease
same,fatal outcome,"[7]; patient number 1, after stopping albendazole, almost certainly related to therapy",died of neutropaenic sepsis
same,neutropenia,"[7]; patients 1, 2 and 8, drug had to be withdrawn",significant neutropenia developed
same,serum CEA levels,"[7]; patients 6, 7 and 8, 10 mg/kg/day oral",stable CEA levels
same,growth inhibition,[8],profoundly inhibited
same,effect on cell cycle distribution,"[9]; SKHEP-1, 250 nM",accumulation of cells in the G0-G1 phase
same,effect on cell cycle distribution,"[9]; SKHEP-1, 1000 nM",arrest and accumulation of cells in the G2-M phase
